Results reported in paper PMC7601404, “Enzymes Involved in the Biosynthesis of Arginine from Ornithine in Maritime Pine (Pinus pinaster Ait.)” (Plants, 2020).
Where two headings read alike, the source gives them in different places.

Columns and labels:
PpOTC [1] = test system: T1, PpOTC; experiment: phosphomolybdate Pi release assay, […] nm; format: biochemical, Pinus pinaster; conditions: 50 mM Tris-HCl pH 8.0, 25 °C, ornithine + carbamoyl-P above Km
T1 construct: gene OTC; mature form without predicted chloroplast transit peptide (TargetP-2.0, WoLF PSORT); N-terminal 6xHis (pDEST17), tag kept; E. coli; cloned cDNA 984 nt

PpASSY [2] = test system: T2, PpASSY; experiment: PPi release, molybdate/ascorbate assay, […] nm; format: biochemical, Pinus pinaster; conditions: 50 mM Tris-HCl pH 8, 25 °C, citrulline, aspartate, 3 mM ATP, 10 mM MgCl2, substrates above Km; partial inhibition
T2 construct: gene ASSY; mature form without predicted chloroplast transit peptide (TargetP-2.0, WoLF PSORT); N-terminal 6xHis (pDEST17), tag kept; E. coli; cloned cDNA 1218 nt

PpASL [3] = test system: T3, PpASL; experiment: fumarate absorbance at […] nm; format: biochemical, Pinus pinaster; conditions: 50 mM Tris-HCl pH 8, 25 °C
T3 construct: gene ASL; mature form without predicted chloroplast transit peptide (TargetP-2.0, WoLF PSORT); N-terminal 6xHis (pDEST17), tag kept; E. coli; cloned cDNA 1398 nt

PpASSY [4] = test system: T2, PpASSY; experiment: PPi release, molybdate/ascorbate assay, […] nm; format: biochemical, Pinus pinaster; conditions: 50 mM Tris-HCl pH 8, 25 °C, 3 mM ATP, 10 mM MgCl2
PpOTC [5] = test system: T1, PpOTC; experiment: phosphomolybdate Pi release assay, […] nm; allosteric sigmoidal fit; format: biochemical, Pinus pinaster; conditions: 50 mM Tris-HCl pH 8.0, 25 °C, read-out: S0.5
PpASL [6] = test system: T3, PpASL; experiment: fumarate absorbance at […] nm; format: biochemical, Pinus pinaster; conditions: 50 mM Tris-HCl pH 8, 25 °C, argininosuccinate above Km
[7] = target: recombinant Pinus pinaster argininosuccinate lyase (PpASL) (Pinus pinaster); experiment: SEC; desalted purified recombinant enzymes loaded separately on an ENrich SEC 650 column calibrated with protein standards (29-669 kDa); holoenzyme mass from the partition coefficient (Kav); elution followed at 280 nm and confirmed by western blot
[8] = target: recombinant Pinus pinaster argininosuccinate synthetase (PpASSY) (Pinus pinaster); experiment: as above
[9] = target: recombinant Pinus pinaster ornithine transcarbamylase (PpOTC) (Pinus pinaster); experiment: as above

Molecule: N=C(N)NCCC[C@H](N)C(=O)O [arginine]
- IC50 (PpOTC [1]; negative allosteric): 10.3 mM
- IC50 (PpASSY [2]): 1.94 mM

Molecule: N=C(NCCC[C@H](N)C(=O)O)N[C@@H](CC(=O)O)C(=O)O [argininosuccinate]
- Km (PpASL [3]): 220 ± 30 µM

Molecule: N[C@@H](CC(=O)O)C(=O)O [aspartate]
- Km (PpASSY [4]; 2 mM citrulline): 120 ± 50 µM

Molecule: NC(=O)OP(=O)(O)O [carbamoyl-P]
- Km (PpOTC [5]; ornithine co-substrate, negative cooperativity): 3480 ± 1400 µM

Molecule: NC(=O)NCCC[C@H](N)C(=O)O [citrulline]
- Km (PpASSY [4]; 2 mM aspartate): 120 ± 30 µM

Molecule: NCCC[C@H](N)C(=O)O [ornithine]
- Km (PpOTC [5]; carbamoyl-P co-substrate (5 mM), positive cooperativity): 1280 ± 160 µM

Molecule: NCCCCNCCCN [spermidine]
- IC50 (PpASL [6]): 4.97 mM

Molecule: NCCCNCCCCNCCCN [spermine]
- IC50 (PpASL [6]): 19.2 mM

Molecule: CC(C)[C@H](N)C(=O)O [valine]
- IC50 (PpOTC [1]): 7.19 mM

Molecule: recombinant Pinus pinaster argininosuccinate lyase (PpASL) (enzyme)
- stoichiometry N [7]: 4

Molecule: recombinant Pinus pinaster argininosuccinate synthetase (PpASSY) (enzyme)
- stoichiometry N [8]: 4

Molecule: recombinant Pinus pinaster ornithine transcarbamylase (PpOTC) (enzyme)
- stoichiometry N [9]: 3
